Test results as given in ChEMBL document CHEMBL5506048, “Modular Biomimetic Strategy Enables Discovery and SAR Exploration of Oxime Macrocycles as Influenza A Virus (H1N1) Inhibitors” (J Med Chem, 2024).
Active and inactive are the calls of the source. No cut-off for these calls is given here.

Legend:
[1] = system: Influenza A virus; experiment: Antiviral activity against Influenza virus H1N1 A/Puerto Rico/8/34 (A/PR/8/34) 2.5TCID50 infected in human Calu-3 cells assessed as reduction in virus-induced cytopathic effect by measuring sloughing at 0.0156 to 37 uM measured after 3 days by immunofluorescence assay; assay type: functional, organism-based; conditions: dose 0.0156-37 µM, time 3.0 day
[2] = system: Influenza A virus; experiment: Synergistic antiviral activity against Influenza virus H1N1 A/Puerto Rico/8/34 (A/PR/8/34) infected in human Calu-3 cells assessed as combination index of 50% inhibition at 0.06 nM in presence of 450 nM oseltamivir acid; assay type: functional
[3] = Oral bioavailability in ICR (CD-1) mouse at 10 mg/kg measured upto 24 hrs by LC-MS/MS analysis; assay type: ADME, organism-based; conditions: in vivo
[4] = system: Influenza A virus; experiment: Synergistic antiviral activity against Influenza virus H1N1 A/Puerto Rico/8/34 (A/PR/8/34) infected in human Calu-3 cells assessed as combination index of 50% inhibition at 28.3 nM in presence of 3.91 nM oseltamivir acid; assay type: functional
[5] = system: Influenza A virus; experiment: Antiviral activity against Influenza virus H1N1 A/Puerto Rico/8/34 (A/PR/8/34) 2.5TCID50 infected in human Calu-3 cells assessed as reduction in virus-induced cytopathic effect by measuring cell rounding at 0.0156 to 37 uM measured after 3 days by immunofluorescence assay; assay type: functional, organism-based; conditions: dose 0.0156-37 µM, time 3.0 day
[6] = system: Influenza A virus; experiment: Antiviral activity against Influenza virus H3N2 (A/Hong Kong/8/68) infected in human Calu-3 cells assessed as viral RNA measured after 3 days by one-time real time PCR assay; assay type: functional, organism-based; conditions: Calu-3, 72 h
[7] = Half life in ICR (CD-1) mouse at 2 mg/kg, iv measured upto 24 hrs by LC-MS/MS analysis; assay type: ADME, organism-based; conditions: in vivo
[8] = Half life in ICR (CD-1) mouse at 10 mg/kg, po measured upto 24 hrs by LC-MS/MS analysis; assay type: ADME, organism-based; conditions: in vivo
[9] = Clearance in ICR (CD-1) mouse at 2 mg/kg, iv measured upto 24 hrs by LC-MS/MS analysis; assay type: ADME, organism-based; conditions: in vivo
[10] = system: Calu-3; experiment: Cytotoxicity against human Calu-3 cells assessed as cell viability measured after 3 days by CellTiter-Lumi Steady Plus Luminescent Cell Viability Assay Kit; assay type: functional; conditions: Calu-3, 72 h, time 3 day
[11] = Selectivity index, ratio of CC50 for human Calu-3 cells to EC50 for antiviral activity against Influenza virus HINI A/Puerto Rico/8/34 (A/PR/8/34); assay type: toxicity; conditions: read-out: Selectivity Index
[12] = Stability of the compound in pH 7.4 PBS buffer assessed as compound remaining measured after 24 hrs by LC-MS/MS analysis; assay type: physicochemical; conditions: read-out: Stability
[13] = system: Influenza A virus; experiment: Antiviral activity against Influenza virus H1N1 A/Puerto Rico/8/34 (A/PR/8/34) 2.5TCID50 infected in human Calu-3 cells assessed as reduction in virus-induced cytopathic effect by measuring degeneration at 0.0156 to 37 uM measured after 3 days by immunofluorescence assay; assay type: functional, organism-based; conditions: dose 0.0156-37 µM, time 3.0 day
[14] = Tmax in ICR (CD-1) mouse at 10 mg/kg, po measured upto 24 hrs by LC-MS/MS analysis; assay type: ADME, organism-based; conditions: in vivo
[15] = system: Influenza A virus; experiment: Antiviral activity against Influenza virus H1N1 A/Puerto Rico/8/34 (A/PR/8/34) infected in human Calu-3 cells assessed as viral RNA measured after 3 days by one-time real time PCR assay; assay type: functional, organism-based; conditions: Calu-3, 72 h
[16] = system: Influenza A virus; experiment: Synergistic antiviral activity against Influenza virus H1N1 A/Puerto Rico/8/34 (A/PR/8/34) infected in human Calu-3 cells assessed as combination index of 50% inhibition at 15.6 nM in presence of 31 nM oseltamivir acid; assay type: functional
[17] = system: Influenza A virus; experiment: Synergistic antiviral activity against Influenza virus H1N1 A/Puerto Rico/8/34 (A/PR/8/34) infected in human Calu-3 cells assessed as combination index of 50% inhibition at 3.91 nM in presence of 83.1 nM oseltamivir acid; assay type: functional
[18] = system: Influenza A virus; experiment: Antiviral activity against HIV pseudotyped H5N1 HA infected in human 293T cells assessed as inhibition of viral entry into cells by measuring intensity of chemiluminescence measured after 3 days by Bright-Glo luciferase assay; assay type: functional, organism-based; conditions: HEK293T, time 3.0 day
[19] = system: Ebolavirus; experiment: Antiviral activity against HIV pseudotyped EBOV GP infected in human 293T cells assessed as inhibition of viral entry into cells by measuring intensity of chemiluminescence measured after 3 days by Bright-Glo luciferase assay; assay type: functional, organism-based; conditions: HEK293T, time 3.0 day
[20] = AUC (0 to infinity) in ICR (CD-1) mouse at 10 mg/kg, po measured upto 24 hrs by LC-MS/MS analysis; assay type: ADME, organism-based; conditions: in vivo
[21] = system: Influenza A virus; experiment: Synergistic antiviral activity against Influenza virus H1N1 A/Puerto Rico/8/34 (A/PR/8/34) infected in human Calu-3 cells assessed as combination index of 50% inhibition at 0.24 nM in presence of 170 nM oseltamivir acid; assay type: functional
[22] = Stability of the compound in RPMI 1640 cell culture medium containing 10% fetal bovine serum assessed as compound remaining measured after 24 hrs by LC-MS/MS analysis; assay type: physicochemical, cell-free; conditions: cattle, read-out: Stability
[23] = system: Influenza A virus; experiment: Antiviral activity against Influenza virus HIN1 (A/California/07/2009 pdm09) infected in human Calu-3 cells assessed as viral RNA measured after 3 days by one-time real time PCR assay; assay type: functional, organism-based; conditions: Calu-3, 72 h
[24] = system: Influenza A virus; experiment: Synergistic antiviral activity against Influenza virus H1N1 A/Puerto Rico/8/34 (A/PR/8/34) infected in human Calu-3 cells assessed as combination index of 50% inhibition at 2.61 nM in presence of 62.5 nM oseltamivir acid; assay type: functional
[25] = Cmax in ICR (CD-1) mouse at 10 mg/kg, po measured upto 24 hrs by LC-MS/MS analysis; assay type: ADME, organism-based; conditions: in vivo
[26] = Volume of distribution in ICR (CD-1) mouse at 2 mg/kg, iv measured upto 24 hrs by LC-MS/MS analysis; assay type: ADME, organism-based; conditions: in vivo
[27] = system: Influenza B virus; experiment: Antiviral activity against Influenza virus Flu B (B/Taiwan/2/62) infected in human Calu-3 cells assessed as viral RNA measured after 3 days by one-time real time PCR assay; assay type: functional, organism-based; conditions: B/Taiwan/2/62, Calu-3, 72 h
[28] = system: Influenza A virus; experiment: Synergistic antiviral activity against Influenza virus H1N1 A/Puerto Rico/8/34 (A/PR/8/34) infected in human Calu-3 cells assessed as combination index of 50% inhibition at 0.98 nM in presence of 172 nM oseltamivir acid; assay type: functional
[29] = AUC (0 to infinity) in ICR (CD-1) mouse at 2 mg/kg, iv measured upto 24 hrs by LC-MS/MS analysis; assay type: ADME, organism-based; conditions: in vivo

## C=C1Cc2cc(C(F)(F)F)ccc2C(=O)NCC2(CCC2)/C(=N/OC)CCCOC1=O
[1]
  Activity: Active
[2]
  CI50: 0.84
[3]
  bioavailability: 0.12%
[4]
  CI50: 0.93
[5]
  Activity: Active
[6]
  EC50: > 50000 nM
[7]
  half-life: 24.6 min
[8]
  half-life: 39 min
[9]
  clearance: 151 mL/min/kg
[10]
  CC50: > 100000 nM
[11]
  selectivity ratio: > 4350
[12]
  remaining at 24 h: > 90%
[13]
  Activity: Active
[14]
  Tmax: 15 min
[15]
  EC50: 23 nM
[15]; time 3 day
  EC90: 142 nM
[16]
  CI50: 0.57
[17]
  CI50: 0.28
[18]
  Activity: inactive
[19]
  Activity: inactive
[20]
  AUC(0-inf): 2.65 ng·h/mL
[21]
  CI50: 0.32
[22]
  remaining at 24 h: > 90%
[23]
  EC50: 62 nM
[24]
  CI50: 0.2
[25]
  Cmax: 2.42 ng/mL
[26]
  Vd: 3.12 L/kg
[27]
  EC50: > 50000 nM
[28]
  CI50: 0.35
[29]
  AUC(0-inf): 222 ng·h/mL
